Results as given in patent US20260021090A1, “METHODS OF ADM[…]” (Trevi Therapeutics, Inc., priority 2022, published 2026).
Like-named read-outs stand apart in the source and are kept apart here.

Assays:
[1] = race (Caucasian vs African American) or BMI
[2] = clinical; conditions: human, plasma, po, absolute bioavailability, oral administration
[3] = IV, cited from earlier work
[4] = injectable formulations (IV or IM or SC); cited from earlier work

Structure (SMILES): Cl.Oc1ccc2c3c1OC1[C@@H](O)CC[C@@]4(O)[C@@H](C2)N(CC2CCC2)CC[C@]314 (stereo partly drawn) [nalbuphine, 17-(cyclobutylmethyl)-4,5α-epoxymorphinian-3, 6α, 14-triol, hydrochloride]
- effect on CL/F due to race or BMI [1]: no observable effect
- bioavailability ([2]; non-elderly subjects): 11%
- bioavailability ([2]; subjects aged older than 65 years): ~44%
- volume of distribution ([3]; across the age groups): comparable across the age groups
- elimination half-life (T½) ([3]; children between 1.5 and 8.5 yrs): 0.9 h
- elimination half-life (T½) ([3]; elderly subjects 65-90 yrs): 2.3 h
- elimination half-life (T½) ([3]; young adults 23-32 yr of age): 1.96 h
- half-life [4]: 2 to 3 h
